According to PMC11423509, “Structural basis of Pseudomonas aeruginosa penicillin binding protein 3 inhibition by the siderophore-antibiotic cefiderocol” (Chemical Science, 2024):
Where two headings read alike, the source gives them in different places.

Tests used:
P. aeruginosa PBP3 [1] = target: T1, P. aeruginosa PBP3 (Pseudomonas aeruginosa, UniProt G3XD46); experiment: biochemical; type: binding; conditions: 311 nM PBP3, 30 nM Bocillin-FL; 10 min pre-incubation at 30 °C; mean ± standard error of three independent experiments; read-out: pIC50 (bocillin, n = 3) (converted)
T1 construct: A gene encoding ftsI (PBP3, residues 50–579) from P. aeruginosa PAO1; made in house; host or cells: E. coli BL21(DE3)
T1 sequence (G3XD46 50-579): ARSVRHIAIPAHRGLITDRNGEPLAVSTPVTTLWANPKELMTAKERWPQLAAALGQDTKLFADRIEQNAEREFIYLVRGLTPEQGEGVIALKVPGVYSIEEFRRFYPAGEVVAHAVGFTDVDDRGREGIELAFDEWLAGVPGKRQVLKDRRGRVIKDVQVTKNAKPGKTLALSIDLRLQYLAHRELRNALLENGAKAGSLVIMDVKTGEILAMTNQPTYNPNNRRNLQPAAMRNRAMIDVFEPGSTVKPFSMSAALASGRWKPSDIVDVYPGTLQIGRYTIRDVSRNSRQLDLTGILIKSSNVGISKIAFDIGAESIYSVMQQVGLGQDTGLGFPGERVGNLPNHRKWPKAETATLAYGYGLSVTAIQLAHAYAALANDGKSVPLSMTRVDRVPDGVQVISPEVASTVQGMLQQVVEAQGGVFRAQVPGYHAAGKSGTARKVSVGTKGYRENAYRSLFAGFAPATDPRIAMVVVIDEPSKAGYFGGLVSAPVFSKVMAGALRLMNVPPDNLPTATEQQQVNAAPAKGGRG
Excerpt: (§1) PBP3 transpeptidases are proposed to be key targets for the cephalosporins and most other β-lactam antibiotics.[13] […] In one method, the thioester substrate analogue S2d is hydrolysed by PBP3 (ESI Scheme S1 ^†) releasing D-alanine and a free thiol.[15,16] The latter reacts with monobromobimane (mBBr), a fluorescent dye, enabling measurement of the turnover rate and determination of pIC50 values.
A positive control without inhibitor and a negative control lacking both enzyme and inhibitor were prepared. In both cases the inhibitor/enzyme solution was replaced with an equal volume of buffer. Following incubation of the inhibitor with PBP3, Bocillin-FL (30 nM) was dispensed to initiate the reaction. Following a further incubation (10 min, 30 °C, 300 rpm) the fluorescence polarisation was measured using a BMG PHERAstar Microplate Reader (λEx/λEm = 480/520 nm) using black 384-well microplates (Greiner). The percentage inhibition of Bocillin-FL binding was calculated for each compound concentration by normalising with control wells. These measurements were used to calculate relative pIC50 values using the log([inhibitor]) against normalised response, fit, using GraphPad Prism version 10.2 (ESI Fig. S7 ^†).
Figure S7: Dose response curves for (A) cefiderocol, (B) ceftazidime, (C) cefepime and […]
assays were carried out with 311 nM PBP3 and 30 nM Bocillin-FL, with 10 minute pre-incubation with inhibitor compounds in 50 mM potassium phosphate, pH 7.4. […]
(§2) independent repeats are shown. Error bars represent standard deviations from three technical replicates measured simultaneously. Average pIC50 values and inhibitor structures are provided […]
(§3) (1 picture or pasted object on this page, not shown here)

P. aeruginosa PBP3 [2] = target: T1, P. aeruginosa PBP3; experiment: biochemical; conditions: 300 nM PBP3, 1.5 mM S2d, 0.5 mM mBBr; 10 min pre-incubation at 30 °C; mean ± standard error of three independent experiments; read-out: pIC50 (S2d, n = 3) (converted)
Excerpt: as §1
A positive control without inhibitor and a negative control lacking both enzyme and inhibitor were prepared. […]
as §2, §3

P. aeruginosa PBP3 [3] = target: T1, P. aeruginosa PBP3; experiment: Meropenem competition binding experiment, PBP3-observed mass spectrometry; conditions: 1 : 1 mixture of cephalosporin and meropenem (1 mM of each), 100 μM PBP3, 10 minutes co-incubation, quenched with formic acid
Protocol: To further probe the relative rates of reaction of the four β-lactams with PBP3, a competitive binding experiment employing PBP3-observed mass spectrometry (MS) was developed. […] Following 10 minutes co-incubation with PBP3, the reactions were quenched with formic acid and analysed by protein-observed MS (under denaturing conditions) (Fig. 1).
The spectra shown are representative of three technical repeats.
Samples were then diluted in LC-MS-grade water (15 μM final concentration) and analysed using a Waters XeVo G2-S mass spectrometer coupled to a Waters Acquity-UPLC. 5 μL samples were injected onto a ThermoFisher Scientific ProSwift RP-4H (1 mm × 50 mm) column pre-equilibrated in 95%v/v water, 5%v/v MeCN. The column was eluted with a linear gradient from 5 to 95v/v% MeCN in water over ten minutes. All solvents contained 0.1%v/v formic acid. Data were analysed using MassLynx Version 4.1. The mass spectra obtained were deconvoluted using the MaxEnt1 algorithm.

PBP3 = system: PBP3; parameters: method as in earlier work; conditions: Bocillin-FL assay under different conditions; ref 20 (Shapiro et al.); cited from earlier work

CO/N=C(\C(=O)N[C@@H]1C(=O)N2C(C(=O)[O-])=C(C[N+]3(C)CCCC3)CS[C@H]12)c1csc(N)n1 [Cefepime, cefepime]
IC50 (P. aeruginosa PBP3 [1]): 100 nM
IC50 (P. aeruginosa PBP3 [2]): 39.8 nM
PBP3 complex formed in competition with meropenem (protein-observed MS) (P. aeruginosa PBP3 [3]): ∼1 : 1 mixture of cefepime and meropenem modified PBP

CC(C)(O/N=C(\C(=O)N[C@@H]1C(=O)N2C(C(=O)[O-])=C(C[N+]3(CCNC(=O)c4ccc(O)c(O)c4Cl)CCCC3)CS[C@H]12)c1csc(N)n1)C(=O)O [Cefiderocol, cefiderocol]
IC50 (P. aeruginosa PBP3 [1]): 100 nM
IC50 (P. aeruginosa PBP3 [2]): 50.1 nM
PBP3 complex formed in competition with meropenem (protein-observed MS) (P. aeruginosa PBP3 [3]): a small amount of cefiderocol modified PBP3 was observed

CC(C)(O/N=C(\C(=O)N[C@@H]1C(=O)N2C(C(=O)[O-])=C(C[n+]3ccccc3)CS[C@H]12)c1csc(N)n1)C(=O)O [Ceftazidime, ceftazidime]
IC50 (P. aeruginosa PBP3 [1]): 251 nM
IC50 (P. aeruginosa PBP3 [2]): 79.4 nM
PBP3 inhibition relative to meropenem (PBP3): more inhibition with ceftazidime than meropenem
PBP3 complex formed in competition with meropenem (protein-observed MS) (P. aeruginosa PBP3 [3]): exclusively meropenem-modified PBP3
